Measurements taken from US9718858B2, “Tunable control of protein degradation in synthetic and endogenous bacterial systems” (priority 2013, dated 2017).

Experiments:
[1] = test system: mf-Lon; experiment: GFP-pdt degradation platform in E. coli, Example 1 (plasmid-borne aTc-inducible mf-Lon); format: cell-based; settings: for Fold Degradation: 0 ng/ml aTc versus 50 ng/ml aTc; for 50 ng/ml aTc (GFP fluorescence, untagged GFP set to 100) / 0 ng/ml aTc (GFP fluorescence, untagged GFP set to 100): GFP-pdt fusion in E. coli, 10 h; for 50 ng/ml aTc (GFP fluorescence, untagged GFP set to 100): mf-Lon induced with 50 ng/ml aTc; for 0 ng/ml aTc (GFP fluorescence, untagged GFP set to 100): no mf-Lon induction
Description: Strains, Plasmids and Reagents. The E. coli K-12 derivative strain MG1655Pro (F-, λ-, Sp^r, lacI, tetR) published previously^1,46 was used as the wild-type strain in all cases except for the synthetic toggle experiments where MG1655ΔlacIΔaraBAD was prepared and used as described herein. Unless otherwise noted, bacteria were grown in Luria broth (LB) at 30° with shaking and mf-Lon expression was induced with 50 ng/ml aTc. Antibiotics carbenicillin (100 ug/ml) and kanamycin (30 ug/ml) were added to the media when appropriate. All plasmids and strain mutations were verified by sequencing, and plasmid maps will be deposited in GenBank.
GFP Degradation Platform. The GFP variant GFPmut3b^47 was used for all GFP expression. GFP-pdt variants were expressed from the constitutive PlacIq promoter^48 on a high-copy plasmid containing the ColE1 origin and a kanamycin-resistance cassette. The PLtetO promoter was used to express mf-Lon on a medium-copy plasmid containing the P15A origin and ampicillin-resistance cassette.
Flow Cytometry. GFP expression was measured using a […] (BD BIOSCIENCES) flow cytometer with the following voltage settings: FCS, 340; SCS, 270; FITC (for GFP), 520; mCherry, 615. At least 10,000 cells were collected for each measurement and FloJo was used for data analysis.
Plate Fluorimetry and Optical Density. Fluorescence and optical density measurements were made with a SPECTRAMAX M5 microplate reader (MOLECULAR DEVICES) using excitation and emission wavelengths of 488 nm and 520 nm, respectively, with an emission filter cutoff at 515 nm Optical density was measured at 600 nm (0D600). All measurements were made in 200 μl in 96-well clear bottom plates.
PDT Mutagenesis Screens. Polymerase chain reaction (PCR) primers containing randomized nucleotides were used to mutagenize the indicated pdt codons. Plasmids containing the mutagenized tags fused to gfp were co-transformed with the mf-Lon expression plasmid into MG1655Pro. Transformants were picked into 96-well plates, grown to mid-log phase, diluted 1:20 into media with and without 50 ng/ml aTc and measured by plate reader after 10 h growth.

[2] = test system: mf-Lon; experiment: E. coli-based GFP-pdt degradation platform, Example 2 (genomically integrated codon-optimized mf-Lon, flow cytometry); format: cell-based; settings: for 50 ng/ml ATc (GFP fluorescence, untagged GFP set to 100) / 0 ng/ml ATc (GFP fluorescence, untagged GFP set to 100): GFP-pdt fusion in E. coli, flow cytometry, 6 hours; for 50 ng/ml ATc (GFP fluorescence, untagged GFP set to 100): mf-Lon induced with 50 ng/ml ATc; for 0 ng/ml ATc (GFP fluorescence, untagged GFP set to 100): no mf-Lon induction
Description: Strains and Reagents. The E. coli K-12 derivative strain MG1655Pro (F-, λ-, Spr, lacI, tetR) published previously^2,42 was used as the wild-type strain in all cases except for the synthetic toggle experiments where the inventors used MG1655ΔlacIΔaraBAD, prepared as described in the herein. Unless otherwise noted, E. coli were grown in Luria broth (LB) at 30° C. with shaking and mf-Lon expression was induced with 50 ng/ml ATc. L. lactis strain […] was used for all L. lactis experiments and grown in M17 broth containing 0.5% glucose. Antibiotics carbenicillin (100 ug/ml), kanamycin (30 ug/ml) and erythromycin (10 ug/ml) were added to the media when appropriate. All plasmids and strain mutations were verified by sequencing, and plasmid maps will be deposited in GenBank.
E. coli-Based Degradation Platform. The mf-lon gene was codon optimized for E. coli expression, placed under control of the PLtetO promoter, and integrated into the lacZ locus along with 5′ and 3′ transcriptional terminators to block unwanted mf-Lon expression from any proximal genomic promoters. The GFP variant GFPmut3b was used for all GFP expression, and GFP-pdt and mCherry-pdt variants were expressed from the constitutive PlacIq promoter on a high-copy plasmid containing the ColE1 origin and the kanamycin resistance cassette kanR.
Flow Cytometry. Data for GFP and mCherry degradation dynamics were collected using an LSRFortessa cell analyzer equipped with a High Throughput Sampler (BD Biosciences), and data for the synthetic toggle switch were collected using a FACSArian flow cytometer (BD Biosciences). For each measurement, cells were fixed in 1% paraformaldehyde (PFA), held at 4° C. for up to 5 days, and then diluted 1:10 in PBS for analysis. At least 5,000 cells were collected for each measurement and FloJo (Treestar) was used for data analysis. […]

[3] = test system: synthetic toggle switch (LacI/TetR); experiment: Protease-driven control of a synthetic toggle switch, Example 2; format: cell-based, E. coli
Description: Flow Cytometry. Data for GFP and mCherry degradation dynamics were collected using an LSRFortessa cell analyzer equipped with a High Throughput Sampler (BD Biosciences), and data for the synthetic toggle switch were collected using a FACSArian flow cytometer (BD Biosciences). For each measurement, cells were fixed in 1% paraformaldehyde (PFA), held at 4° C. for up to 5 days, and then diluted 1:10 in PBS for analysis. At least 5,000 cells were collected for each measurement and FloJo (Treestar) was used for data analysis.
Synthetic Toggle Switch. The plasmid pKDL071R8, based on pKDL07143, was altered to contain a weakened tetR ribosome binding site (RBS) to enhance toggle bistability in the minimal media conditions used. This plasmid served as the parental strain for all LacI-pdt toggle switch experiments. Pdt variants were fused to lad by overlapping PCR and cloned into pKDL071R8 using SacII and BsrGI. The arabinose inducible PBAD promoter was used to express mf-Lon from a second plasmid. Cells containing the toggle switch and mf-Lon expression plasmids were grown in 200 μl in 96-well round bottom plates at 37° C. in M9 minimal media containing 0.2% glycerol and 0.05% casamino acids, and care was taken to maintain exponential growth throughout the experiment. […]

| Substance | Fold Degradation [1] | 50 ng/ml aTc (GFP fluorescence, untagged GFP set to 100) [1] [%] | 0 ng/ml aTc (GFP fluorescence, untagged GFP set to 100) [1] [%] | drop in GFP following mf-Lon induction ([1]; from initial (steady-state) levels) [fold] | GFP-pdt levels compared with untagged GFP ([1]; late-log and stationary phase, constitutive expression, no mf-Lon) | GFP-pdt remaining, % of its initial levels after mf-Lon expression [2] [%] | 50 ng/ml ATc (GFP fluorescence, untagged GFP set to 100) [2] [%] | 0 ng/ml ATc (GFP fluorescence, untagged GFP set to 100) [2] [%] | toggle switching relative to LacI-pdt#3 [3] |
| --- | --- | --- | --- | --- | --- | --- | --- | --- | --- |
| AANKNEENTNEVPTFMLNAGQANYAFA [pdt, reference compound] | 20.7 | 0.6 | 12.5 | 21 | markedly lower | 3 | 1 | 50 | – |
| pdt#1 (AANKNEENTNEVPTFMLNAGQANRLQL) | 24.6 | 0.9 | 21.8 | – | – | – | 1 | 40 | – |
| pdt#3A: Example 2: aa13-15 FKL, aa24-27 RRRV, SEQ ID NO 114 (AANKNEENTNEVFKLMLNAGQANRRRV) | – | – | – | – | – | – | 27 | 115 | provided temporal control over the circuit switch rate |
| pdt#3B: Example 2: aa13-15 RAI, aa24-27 RRRV, SEQ ID NO 18 (AANKNEENTNEVRAIMLNAGQANRRRV) | – | – | – | – | – | – | 38 | 100 | provided temporal control over the circuit switch rate |
| pdt#3C: Example 2: aa13-15 AQP, aa24-27 RRRV, SEQ ID NO 22 (AANKNEENTNEVAQPMLNAGQANRRRV) | – | – | – | – | – | – | 48 | 107 | – |
| pdt#3D: Example 2: aa13-15 APN, aa24-27 RRRV, SEQ ID NO 19 (AANKNEENTNEVAPNMLNAGQANRRRV) | – | – | – | – | – | – | 66 | 104 | – |
| pdt#3E: Example 2: aa13-15 PDG, aa24-27 RRRV, SEQ ID NO 115 (AANKNEENTNEVPDGMLNAGQANRRRV) | – | – | – | – | – | – | 87 | 112 | – |
